Read-outs that look alike come from different tables or passages of the source. Each block holds one molecule with its values, some of them ahead of it.
Assays:
[1] = target: alpha-kinase 1 (ALPK1) (Homo sapiens, UniProt Q96QP1); experiment: ALPK1 activation (kinase domain phosphorylation of TIFA); assay type: biochemical
[2] = system: innate immune responses in mice; experiment: Mouse dorsal air pouch model of acute inflammation (neutrophil recruitment, multiplex immunoassay for 36 cytokines); assay type: in vivo; settings: for proinflammatory cytokines and chemokines in air pouches (IL-6, TNFα, IP-10, MCP-1/3, IFNγ, GM-CSF, MIP-1α and β, RANTES): air-pouch washes, compared with saline control; for neutrophil recruitment into the air pouch: injection into air pouch; for level of GRO-α/KC/CXCL1, IP-10 and MCP-1 in the sera: sera of injected mice
Source text: To investigate whether ADP-Hep alone could stimulate innate immune responses in vivo, a mouse dorsal air pouch model established to assess acute inflammation was employed (Gaudet et al. Science 348, 1251-1255 (2015).
We then performed a multiplex immunoassay for 36 cytokines in both the air-pouch washes and the sera of injected mice. […] Thus, ADP-Hep but not HBP alone can potently activate innate immune responses in mice.
To confirm that 1-ADP-heptoses and 1-ADP-heptose-7-phosphates can stimulate innate immune responses in vivo, a mouse dorsal air pouch model established to assess acute inflammation was employed (Gaudet, et al. Science 348, 1251-1255 (2015).
Injection of 1-ADP-heptoses and 1-ADP-heptose-7-phosphates into the air pouch induces neutrophil recruitment into the pouch. […] 1-ADP-heptoses and 1-ADP-heptose-7-phosphates also increase the level of keratinocyte-derived chemokine (GRO-a/KC/CXCL1), IP-10 and MCP-1 in the sera.

[3] = target: ALPK1 N-terminal domain (NTD) (Homo sapiens, UniProt Q96QP1); experiment: Direct binding to ALPK1 N-terminal domain
Chain of ALPK1 N-terminal domain (NTD) (Q96QP1 1-473 limits assumed): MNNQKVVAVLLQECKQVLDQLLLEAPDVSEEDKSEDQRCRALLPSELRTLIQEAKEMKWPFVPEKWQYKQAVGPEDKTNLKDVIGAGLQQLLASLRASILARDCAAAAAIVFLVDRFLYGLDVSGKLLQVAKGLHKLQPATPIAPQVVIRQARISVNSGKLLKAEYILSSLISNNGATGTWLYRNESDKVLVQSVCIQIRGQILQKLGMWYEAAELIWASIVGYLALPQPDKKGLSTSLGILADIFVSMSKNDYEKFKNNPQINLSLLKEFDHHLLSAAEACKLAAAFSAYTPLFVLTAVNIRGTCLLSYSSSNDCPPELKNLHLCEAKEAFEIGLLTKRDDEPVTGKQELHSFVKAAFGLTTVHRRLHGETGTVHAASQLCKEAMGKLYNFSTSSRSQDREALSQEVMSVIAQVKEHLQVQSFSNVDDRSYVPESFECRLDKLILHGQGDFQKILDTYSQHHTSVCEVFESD

[4] = system: NF-κB in 293T cells; experiment: NF-κB activation in 293T cells, luciferase reporter activity; assay type: cell-based
[5] = system: MC38 colorectal adenocarcinoma cells; experiment: MC38 tumor growth, posttumor treatment with checkpoint blockade; assay type: in vivo, C57BL/6N mice; settings: 0.5 mg/mouse intratumor combined with anti-PD-1 antibody 40 ug/mouse intraperitoneal, day 13-28
Method: FIG. 1F. […] C57BL/6N mice (n=6 mice per group) were injected subcutaneously with 2×10^5 MC38 colorectal adenocarcinoma cells on day 0. ADP-heptose (0.5 mg/mouse, intratumor injection) and anti-PD-1 antibody (40 ug/mouse, intraperitoneal injection) was administered on day 13, 16, 19, 22, 25, and 28 after tumor inoculation.

[6] = system: THP-1 and 293T cells; experiment: Host cytosol entry, NF-kB activation and cytokine induction in THP-1 and 293T cells; settings: for cytokines induction (such as interleukin-8): THP-1 and 293T cells, compound added on its own
[7] = system: ovalbumin (OVA)-specific IgG; experiment: Adjuvant activity in vivo: OVA immunization, serum OVA-specific IgG by ELISA; settings: C57BL/6N mice, intramuscular, 10 μg OVA mixed with 0.5 mg/mouse; after 21 days
Method: FIG. 1C. […] C57BL/6N mice (8 mice per group) were immunized intramuscularly with 10 μg OVA mixed with PBS, alum (2 mg/mouse), or ADP-heptose (0.5 mg/mouse). After 21 days, serum titers of OVA-specific IgG were measured by ELISA.

[8] = system: TIFA; experiment: TIFA phosphorylation in 293T cells stably expressing EGFP-TIFA, anti-pT9-TIFA immunoblot; assay type: cell-based; settings: 5 μM for 5 hours
Method: FIG. 1B. […] 293T cells stably expressing EGFP-TIFA were treated with ADP-heptose analogs (5 μM) for 5 hours, and analyzed by anti-pT9-TIFA immunoblot.

[9] = system: B16-OVA melanoma cells; experiment: B16-OVA tumor growth, posttumor intratumor treatment; assay type: in vivo, C57BL/6N mice; settings: 0.5 mg/mouse intratumor injection on day 8, 11, 14, 17
Method: FIG. 1D and FIG. 1E. […] C57BL/6N mice (n=6 mice per group) were injected subcutaneously with 2×10^5 B16-OVA melanoma cells on day 0. ADP-heptose (0.5 mg/mouse) was administered on day 8, 11, 14, and 17 after tumor inoculation by intratumor injection. Tumor volume (D) and tumor weight (E).

[10] = system: THP-1 and 293T cells

Chain of alpha-kinase 1 (ALPK1) (Q96QP1 whole entry, the tested form may be a part): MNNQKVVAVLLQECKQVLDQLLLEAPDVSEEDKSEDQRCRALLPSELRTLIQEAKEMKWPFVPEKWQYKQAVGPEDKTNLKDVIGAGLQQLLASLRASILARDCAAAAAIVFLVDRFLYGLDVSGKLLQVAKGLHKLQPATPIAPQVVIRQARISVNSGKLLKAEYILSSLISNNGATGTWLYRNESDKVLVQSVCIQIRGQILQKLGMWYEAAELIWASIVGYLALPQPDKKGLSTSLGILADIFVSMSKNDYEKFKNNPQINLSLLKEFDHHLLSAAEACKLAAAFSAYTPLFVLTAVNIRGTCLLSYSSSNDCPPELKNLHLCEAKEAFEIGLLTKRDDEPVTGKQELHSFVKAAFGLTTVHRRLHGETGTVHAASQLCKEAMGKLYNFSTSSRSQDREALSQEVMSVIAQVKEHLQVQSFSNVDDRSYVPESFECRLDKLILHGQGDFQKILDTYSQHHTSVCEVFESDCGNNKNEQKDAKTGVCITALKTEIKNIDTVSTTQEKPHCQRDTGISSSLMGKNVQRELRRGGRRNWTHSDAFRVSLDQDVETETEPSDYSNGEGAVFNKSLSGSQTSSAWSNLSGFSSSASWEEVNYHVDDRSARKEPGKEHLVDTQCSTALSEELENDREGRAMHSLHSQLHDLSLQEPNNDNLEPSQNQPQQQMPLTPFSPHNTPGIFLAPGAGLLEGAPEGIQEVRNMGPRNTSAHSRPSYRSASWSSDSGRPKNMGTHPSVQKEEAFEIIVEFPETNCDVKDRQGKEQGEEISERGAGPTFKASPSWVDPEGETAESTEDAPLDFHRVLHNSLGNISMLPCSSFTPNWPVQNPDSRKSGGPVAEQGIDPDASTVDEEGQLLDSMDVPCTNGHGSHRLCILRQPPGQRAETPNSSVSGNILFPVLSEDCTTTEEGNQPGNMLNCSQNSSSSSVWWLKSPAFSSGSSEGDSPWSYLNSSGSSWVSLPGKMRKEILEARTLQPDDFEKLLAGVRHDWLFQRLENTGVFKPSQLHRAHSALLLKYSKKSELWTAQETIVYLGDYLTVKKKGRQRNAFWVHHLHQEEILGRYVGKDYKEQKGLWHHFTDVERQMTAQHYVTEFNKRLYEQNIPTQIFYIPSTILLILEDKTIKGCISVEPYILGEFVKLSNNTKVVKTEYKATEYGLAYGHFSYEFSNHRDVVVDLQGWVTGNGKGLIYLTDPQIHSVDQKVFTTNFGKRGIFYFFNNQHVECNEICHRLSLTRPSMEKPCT

- ALPK1 activation [1]: ALPK1 activation-competent
Compound: Nc1ncnc2c1ncn2C1OC(COP(=O)(O)OP(=O)(O)OC2OC(C(O)COP(=O)(O)O)C(O)C(O)C2O)C(O)C1O (stereo not shown) [ADP-Heptose 7-P]

Compound: Nc1ncnc2c1ncn2[C@@H]1O[C@H](COP(=O)(O)OP(=O)(O)O[C@@H]2O[C@H]([C@@H](O)CO)[C@@H](O)[C@H](O)[C@@H]2O)[C@@H](O)[C@H]1O [ADP-LD-Hep]
- proinflammatory cytokines and chemokines in air pouches (IL-6, TNFα, IP-10, MCP-1/3, IFNγ, GM-CSF, MIP-1α and β, RANTES) [2]: highly elevated
- neutrophil recruitment into the air pouch [2]: induced massive neutrophil recruitment into the pouch
- level of GRO-α/KC/CXCL1, IP-10 and MCP-1 in the sera [2]: increased the level

Compound: Nc1ncnc2c1ncn2[C@@H]1O[C@H](COP(=O)(O)OP(=O)(O)O[C@@H]2O[C@H]([C@H](O)CO)[C@@H](O)[C@H](O)[C@@H]2O)[C@@H](O)[C@H]1O [ADP-heptose, 1-ADP-β-D-manno-Heptose]
- ALPK1 activation [1]: stimulates the NTD-bound C-terminal kinase domain to phosphorylate TIFA and induce its oligomerization
- direct binding to ALPK1 N-terminal domain [3]: directly binds
- NF-κB activation (luciferase reporter activity) [4]: activated NF-κB in 293T cells in a dose-dependent manner
- MC38 tumor growth [5]: Inhibition of MC38 tumor growth
- cytokines induction (such as interleukin-8) [6]: cytokines induction
- entry into host cytosol on its own ([6]; host cells): could enter host cytosol on its own
- serum ovalbumin (OVA)-specific IgG production (adjuvant activity) [7]: exhibited adjuvant activity in vivo to elevate the serum ovalbumin (OVA)-specific IgG production
- TIFA phosphorylation (anti-pT9-TIFA immunoblot) [8]: induced TIFA phosphorylation
- B16-OVA tumor growth (tumor volume, tumor weight) [9]: Inhibition of B16-OVA tumor growth
- inflammatory responses in mice after injection ([2]; mice, Alpk1-dependent): induces robust inflammatory responses in mice

Compound: Nc1ccn(C2OC(COP(=O)(O)OP(=O)(O)OC3OC(C(O)CO)C(O)C(O)C3O)C(O)C2O)c(=O)n1 (stereo not shown) [CDP-heptose]
- NF-κB activation (luciferase reporter activity) [4]: activated NF-κB in 293T cells in a dose-dependent manner
- TIFA phosphorylation (anti-pT9-TIFA immunoblot) [8]: induce TIFA phosphorylation

Compound: Nc1nc2c(ncn2[C@@H]2O[C@H](COP(=O)(O)OP(=O)(O)O[C@H]3O[C@H]([C@H](O)CO)[C@@H](O)[C@H](O)[C@@H]3O)[C@@H](O)[C@H]2O)c(=O)[nH]1 [GDP-heptose]
- NF-κB activation (luciferase reporter activity) [4]: activated NF-κB in 293T cells in a dose-dependent manner
- TIFA phosphorylation (anti-pT9-TIFA immunoblot) [8]: induce TIFA phosphorylation

- entry into host cytosol on its own [10]: cell-impermeable
Compound: O=P(O)(O)OC[C@@H](O)[C@H]1O[C@@H](OP(=O)(O)O)[C@@H](O)[C@@H](O)[C@@H]1O [HBP, D-glycero-β-D-manno Heptose 1,7-bisphosphate, reference compound]
- cytokines induction (such as interleukin-8) [6]: not
- NF-κB activation ([6]; transfected into host cells): NF-κB activation observed
- proinflammatory cytokines and chemokines in air pouches (IL-6, TNFα, IP-10, MCP-1/3, IFNγ, GM-CSF, MIP-1α and β, RANTES) [2]: did not affect local and systemic productions
- neutrophil recruitment into the air pouch [2]: failed to increase the number of air-pouch neutrophils
- level of GRO-α/KC/CXCL1, IP-10 and MCP-1 in the sera [2]: did not affect local and systemic productions

Compound: O=c1ccn(C2OC(COP(=O)(O)OP(=O)(O)OC3OC(C(O)CO)C(O)C(O)C3O)C(O)C2O)c(=O)[nH]1 (stereo not shown) [UDP-heptose]
- NF-κB activation (luciferase reporter activity) [4]: activated NF-κB in 293T cells in a dose-dependent manner
- TIFA phosphorylation (anti-pT9-TIFA immunoblot) [8]: induce TIFA phosphorylation

Compound: Nc1ncnc2c1ncn2C1CC(O)C(COP(=O)(O)OP(=O)(O)OC2OC(C(O)CO)C(O)C(O)C2O)O1 (stereo not shown) [dADP-heptose]
- NF-κB activation (luciferase reporter activity) [4]: activated NF-κB in 293T cells in a dose-dependent manner
- TIFA phosphorylation (anti-pT9-TIFA immunoblot) [8]: induce TIFA phosphorylation

Compound: Nc1ccn(C2CC(O)C(COP(=O)(O)OP(=O)(O)OC3OC(C(O)CO)C(O)C(O)C3O)O2)c(=O)n1 (stereo not shown) [dCDP-heptose]
- NF-κB activation (luciferase reporter activity) [4]: activated NF-κB in 293T cells in a dose-dependent manner
- TIFA phosphorylation (anti-pT9-TIFA immunoblot) [8]: induce TIFA phosphorylation

Compound: Nc1nc2c(ncn2C2CC(O)C(COP(=O)(O)OP(=O)(O)OC3OC(C(O)CO)C(O)C(O)C3O)O2)c(=O)[nH]1 (stereo not shown) [dGDP-heptose]
- NF-κB activation (luciferase reporter activity) [4]: activated NF-κB in 293T cells in a dose-dependent manner
- TIFA phosphorylation (anti-pT9-TIFA immunoblot) [8]: induce TIFA phosphorylation

Compound: Cc1cn(C2CC(O)C(COP(=O)(O)OP(=O)(O)OC3OC(C(O)CO)C(O)C(O)C3O)O2)c(=O)[nH]c1=O (stereo not shown) [dTDP-heptose]
- NF-κB activation (luciferase reporter activity) [4]: activated NF-κB in 293T cells in a dose-dependent manner
- TIFA phosphorylation (anti-pT9-TIFA immunoblot) [8]: induce TIFA phosphorylation
